Data on four compounds can be found in PMC9645390, “Amphiphilic stilbene derivatives attenuate the neurotoxicity of soluble Aβ42 oligomers by controlling their interactions with cell membranes” (Chemical Science, 2022).

Each structure is given as a SMILES string. Some results are limits rather than exact numbers.

One data set has as its target Aβ oligomers. Conditions: read-out: Kd, oligomer-selective probe; cited from earlier work.
The next data set concerns the target T1, Aβ42 fibrils (Homo sapiens, UniProt P05067).
T1 construct: 1 mg of commercial Aβ42 monomer powder (from GL biochem) was dissolved in 1; purchased GL biochem
As to the kind of experiment: Fluorescence saturation binding assay with Aβ42 fibrils. Conditions: Aβ42 fibrils. The protocol:
(§1) Fig. 3 Binding constant measurements of ZY-5-OMe (left), ZY-5-MT (middle), ZY-5-DT (right) with Aβ42 fibrils (top), and oligomers (bottom). The measurements were performed in 10 mM phosphate buffered saline (PBS), pH 7.4. The Kd curves were fitted in GraphPad Prism with one site-specific binding model. Equation: Y = Bmax × X/(Kd + X). [Aβ42 fibrils] = [Aβ42 oligomers] = 5 μM.
(§2) Preparation of the Aβ42 Fibrils and Aβ42 Oligomers
(§3) Aβ42 fibrils: 1 mg of commercial Aβ42 monomer powder (from GL biochem) was dissolved in 1
(§4) mL 1,1,1,3,3,3-hexafluoro-2-propanol (HFIP) at room temperature and incubated for 1h. The
(§5) resulting solution was divided equally into two Eppendorf tubes. The solution in each Eppendorf
(§6) tube containing 0.5 mg Aβ42 monomer was then evaporated overnight and dried by vacuum
(§7) centrifuge to generate monomeric films. 100 μM Aβ42 fibrils solution was prepared by dissolving
(§8) the 0.5 mg monomeric films in 1.1 mL PBS buffer (with final DMSO concentration less than 1%)
(§9) and stiring at 37 °C for 3 days.
(§10) Aβ42 oligomers: The 0.5 mg monomeric films were dissolved in 1.1 mL PBS buffer (with final
(§11) DMSO concentration less than 1%) and incubated at 4 °C overnight. The resulting solution was
(§12) then centrifuged at 3000 rpm for 15 mins to remove the insoluble aggregates. The clear supernatant
(§13) was then used for the following experiments. […]
(§14) In Vitro Saturation Binding Studies with Aβ42 Fibrils and Aβ42 Oligomers
(§15) To a solution of increasing concentrations of compounds, a fixed concentration of the generated
(§16) aggregated Aβ42 fibrils or Aβ42 oligomers solutions (5 to 15 μM) was added to yield a total volume
(§17) of 100 μL. Nonspecific binding was determined without compounds. The mixture was incubated
(§18) for 15 min at room temperature. All fluorescence data were obtained on a SpectraMax M2e plate
(§19) reader (Molecular Devices).

A further data set deals with T2, Aβ42 oligomers (Homo sapiens, UniProt P05067).
T2 construct: 1 mg of commercial Aβ42 monomer powder (from GL biochem) was dissolved in 1; purchased GL biochem
As to the kind of experiment: Fluorescence saturation binding assay with Aβ42 oligomers. On the procedure:
as §1, §2, §3, §4, §5, §6, §7, §8, §9, §10, §11, §12, §13, §14, §15, §16, §17, §18, §19

For data set [1], the target named is T3, Aβ plaques in 5xFAD mice brain sections (Homo sapiens, UniProt P05067).
T3 construct: aggregated Aβ species were commonly observed in brain sections from 5xFAD transgenic mice; tissue Jackson Laboratories; host or cells: brain sections of 9-month-old 5xFAD transgenic mice
As to the kind of experiment: Fluorescence imaging of 5xFAD mouse brain sections, colocalization with Congo Red. Conditions: 9-month-old 5xFAD brain sections; compound 5 μM, Congo red 2.5 μM. On the procedure: (§20) In order to confirm that the compounds can also bind to native Aβ species, brain sections collected from 9-month-old 5xFAD transgenic mice have been employed in the fluorescence imaging studies. […] The brain sections were first incubated with our compounds, followed by Congo Red (CR), which is a well-established fluorescent probe that can bind to Aβ plaques.[34] The treated brain sections were then imaged using fluorescence microscope. […] Immunostaining with the CF594-conjugated HJ 3.4 antibody (CF594-HJ3.4) was also performed to confirm that these six compounds can bind to Aβ species specifically in the brain sections (Fig. 5). Moreover, the log D values of the compounds were also measured by octanol-PBS partition assays.[35]
Fig. 4 Fluorescence microscopy images of 5xFAD mice brain sections co-incubated with amphiphilic compounds (top), Congo red (middle) and merged images (bottom, along with the Parson's correlation coefficients R). Concentrations: [amphiphilic compounds] = 5 μM, [Congo red] = 2.5 μM; scale bar: 125 μm. TEXT PRINTED IN THE PICTURE: ZY-5-MT: Merged R= 0.84 | ZY-12-DT: Merged R= 0.52 | ZY-12-OMe: Merged R= 0.77 | ZY-15-OMe: Merged R= 0.77 | ZY-17-DT: Merged R= 0.77 | ZY-17-OMe: Merged R= 0.72 […]
Histological Staining of 5×FAD Mice Brain Sections
5xFAD transgenic mice brain sections were blocked with bovine serum albumin (2% BSA in PBS, pH 7.4, 10 min). Then the mice brain sections were transferred to a PBS solution of the compound and incubated for 1 h. After which, the brain sections were transferred to a PBS solution of Congo Red or antibody HJ 3.4 (Professor David Holtzman, 1 μg/ml) and incubated for another 1 h. Then, the brain sections were treated with BSA again (5 min) followed by washing with PBS (3 × 2 min), DI water (3 × 2 min). Finally, the mice brain sections were mounted with non-fluorescent mounting media, and the images were obtained by using EVOS FL Auto 2. ImageJ Fiji program was used for colocalization analysis and determination of the Pearson’s correlation coefficient. The primary

The nature of data set [2]: Log D by octanol-PBS partition assay. The data set is classed as physicochemical. The following applies: pH 7.4, fluorescence readout. On the procedure: as §20, with “assays.[35] […]” for “assays.[35]”
The Log D value was measured following a published procedure using slight modifications.4 In general, compounds in 0.5 mL octanol was subjected to partition with 0.5 mL octanol-saturated
PBS. The whole mixture was stirred vigorously for 5 min, and centrifuged at 2,000 rpm for 5 min.
The top octanol layer was separated for later fluorescence measurement. The remaining PBS layer was partitioned with 0.5 mL PBS-saturated octanol, and the second top octanol layer was then separated after vigorous stirring and centrifuging at 2,000 rpm for another 5 min. The two octanol layers’ fluorescence spectra were recorded. The log D value was calculated by the fluorescence intensity ratio at the compounds’ emission wavelength for the above two octanol extractions. […]

Data set [3] can be described thus: Alamar Blue cytotoxicity assay in N2a cells. The data set is classed as cell-based, mouse. The following applies: mouse, N2a (Neuro2A) neuroblastoma cells, 40 h, read-out: cell viability. The protocol: (§21) After confirming these amphiphilic compounds can bind to Aβ species both in vitro and ex vivo, we next investigated whether these compounds could attenuate the toxicity of the Cu–Aβ species, as the Cu^2+ ions were reported to promote the formation of neurotoxic soluble Aβ42 oligomers.[45,46] Firstly, the Alamar Blue cell viability assay was used to measure the cytotoxicity of the compounds at different concentrations ranging from 20 μM to 2 μM in mouse neuroblastoma N2a cells (Fig. 8). […] Considering its high binding affinity to both Aβ fibrils and oligomers, we also further tested its ability to alleviate Cu^2+–Aβ42-induced toxicity. […] The underlying mechanism is unclear, but we propose that these compounds might perform similarly to the toxic oligomers that bind to some cell membrane receptors or insert into the membrane lipids to form porous channels.
(§22) Alamar Blue assay was chosen for the cytotoxicity studies.3 Mouse neuroblastoma Neuro2A (N2A) cells were grown with DMEM/10% FBS in a petri dish at 37 °C in a humidified atmosphere with 5% CO2. Then N2A cells were seeded in a 96-well plate (1.0 × 10^4/well). After 24 h incubation, cell media was changed to DMEM/N-2, and N2A cells were incubated for another 1 h. Then the cells were treated with different concentrations of compounds for 40 h, Alamar Blue solution (10 μL) was added, and the cells were incubated for another 90 min at 37 °C. The fluorescence intensity of each well was measured at 590 nm (excitation wavelength = 560 nm).
(§23) For the Cu2+-Aβ-induced toxicity studies, cells were treated monomeric Aβ42, Cu2+, monomeric Aβ42 + Cu2+, and monomeric Aβ42 + Cu2+ + compounds, monomeric Aβ42 + Cu2+ + copper chelators (Me2HTACN or Me3TACN), respectively. After 40 h incubation, Alamar Blue solution (10 μL) was added, and the cells were incubated for another 90 min at 37 °C. The fluorescence intensity of each well was measured at 590 nm (excitation wavelength = 560 nm). […]

Data set [4] deals with mouse neuroblastoma N2a cells. Description: Alamar Blue cytotoxicity assay in N2a cells. Conditions: 2 to 20 μM. The data set is classed as cell-based. On the procedure: as §21, §22, §23

T2 sequence (P05067 672-713 limits assumed): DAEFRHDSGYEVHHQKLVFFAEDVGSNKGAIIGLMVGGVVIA
T1 sequence (P05067 672-713 limits assumed): as above
T3 sequence (P05067 672-713 limits assumed): as above

Regarding `CCN(CC)c1ccc(/C=C/C2=[O+][B-](F)(F)OC(/C=C/c3ccc(N(CC)CC)nc3)=C2CCCOc2c(C)cccc2C)cn1` [CRANAD-102], on Aβ oligomers, the Kd was 7.5 ± 10 nM.

Consider `COCCOCCn1c2ccc(F)cc2c2cc(/C=C/c3cc[n+](CCO)c4ccccc34)ccc21` [F-SLOH], for which the Kd on Aβ oligomers was 660 nM.

Turning to `COc1cc(-c2ccc(/C=C/c3ccc(N(C)C)cc3)s2)cc(CN2CCN(C)CCN(C)CC2)c1O` [ZY-12-OMe], the Kd on Aβ42 fibrils (10 mM PBS pH 7.4, one site-specific binding model, read-out: Kd, Fibrils) was 390 nM; on Aβ42 oligomers (Aβ42 oligomers, 10 mM PBS pH 7.4, one site-specific binding model), 320 nM. For the same compound, the “binding ratio, Fibrils” value on Aβ42 fibrils (from cross point between plateau and initial slope) was 8.5. In addition, the “binding ratio, Oligomers” value on Aβ42 oligomers (Aβ42 oligomers, from cross point between plateau and initial slope) is recorded as 10.2. Also, on Aβ42 oligomers (lower Kd for Aβ oligomers than Aβ fibrils), the “binding preference oligomers vs fibrils (from Kd values)” value is recorded as “higher binding affinity to oligomers over fibrils”. Further, the “Pearson's correlation coefficient R, colocalization with Congo Red” value in data set [1] is 0.77. Also, the log distribution coefficient (logD) in data set [2] was 1.17 ± 0.026. The viability at 40 h, 5 µM in data set [3] (at 5 μM) was over 75%. For the same compound, in data set [3] (at 10 μM), the viability at 40 h, 10 µM was under 50%. The “cytotoxicity (in words)” value in data set [4] is on record as “higher cytotoxicity than others”.

On to `CCOc1cccc(C=Cc2cc(C)c3n2[B-](F)(F)[N+]2=C(CCC(=O)OCC(Cl)(Cl)Cl)C=CC2=C3)c1O` [BD-Oligo], for which, at Aβ oligomers, the Kd was 480 nM.
